{"source": "patent US9950091B2", "about": "“Composition and method for stopping hemorrhage, infection, and accelerating healing in various types of wound or burns” (priority 2015, dated 2018)", "test_system": "human blood (platelet/fibrin clot)", "test": "Thrombelastography (TEG) clot kinetics in whole blood", "format": "cell-based", "conditions": "Table 4, mean ± SD, n=4, control = normal blood, 'Heparin +' lines in presence of heparin", "from_the_text": "Thrombelastography techniques, which are commonly used in the clinical laboratory for monitoring coagulation functions, were utilized. Siliconized Vacutainer tubes (Becton Dickinson, Rutherford, N.J.) were used to collect whole blood. To maintain a ratio of citrate to whole blood of 1:9 (v/v), the tubes contained 3.2% trisodium citrate. Blood samples were placed on a slow speed rocker until TEG analysis.\nWhole Blood Coagulation Analyzer, Model 5000 Thrombelastograph, Hemoscope Corporation, Skokie, Ill., was used. TEG is based on the measurement of the physical viscoelastic characteristics of blood clots. An oscillating plastic cylindrical cuvette (“cup”) and a coaxially suspended stationary piston (“pin”) with a […] clearance between the surfaces are used to monitor clot formation at 37° C. Every 4.5 seconds, with a 1-second mid cycle stationary period, the cup oscillates in either direction, resulting in a frequency of 0.1 Hz. […]\nDifferent hydrogel polycatioinic matrix micro-composites were evaluated. […]\nA standard global coagulation assay, namely Thrombelastography, uses a total of 5 ml blood from human volunteers. Additionally, the efficiency of the optimal hydrogel compositions that have the shortest Time to Clotting (R) and the strongest clot strength (MA) were evaluated in stopping severe bleeding in a hemorrhage simulation model system. […]"}
{"smiles": "NC[C@H]1CC[C@H](C(=O)O)CC1", "note": "[tranexamic acid (TXA), tranexamic acid]", "values": [{"measurement": "MA-Clot Strength", "value": "57 ± 4", "unit": "mm"}, {"measurement": "R - Time to Clot initiation", "value": "9.0 ± 4", "unit": "min"}]}
